Assay results reported in US20120238533A1, “(Heteroarylmethyl) Thiohydantoins as anticancer drugs” (BAYER PHARMA AKTIENGESELLSCHAFT, priority 2009, published 2012).

Key:
[1] = system: Eker rat leiomyoma tumor-derived cells (Elt3); assay: Proliferation of Eker rat leiomyoma tumor-derived cells (Elt3), CellTiter-Glo viability assay; type: cell-based; settings: for proliferation of Eker rat myoma cell line (Elt3): different concentrations, 7 days incubation, FIG. 1 and FIG. 2, range comparable to estradiol
Procedure: Elt3 cells were obtained from Cheryl Walker (University of Texas). In comparison to other cells, Elt3 cells were characterized to be tumorigenic in nude mice (C. Walker, Recent Prog. Horm. Res., January 2002; 57: 277). Elt3 cells were grown to confluence in T-75 flasks with DMEM containing 10% FCS at 37° C. and 5% CO2. The medium was changed into 1% CCS for 24 h. 1000 cells were seeded in 96-well-plates for 24 hours. Elt3 cells were incubated with test compounds for 7 days. The CellTiter-Glo® Luminescent Cell Viability Assay (Promega) was used for determination of the number of viable cells in culture based on quantitation of the ATP present, an indicator of metabolically active cells.
Elt3 cells were obtained and grown to confluence and were seeded as described above. Elt3 cells were incubated with test compounds for 7 days. The CellTiter-Glo® Luminescent Cell Viability Assay (Promega) was used for determination of the number of viable cells in culture based on quantitation of the ATP present, an indicator of metabolically active cells.

[2] = system: human uterine leiomyoma xenografts; assay: Xenograft of human uterine leiomyoma in immunodeficient mice, graft weight; type: in vivo; settings: 60 d, SCID mice with E2 and P pellets, p<0.05
Procedure: Human uterine leiomyoma (UL) tissue was derived from any form of surgical intervention indicated for the respective diagnosis, either by hysterectomy with subsequent preparation of the tissues or by myomenucleation with or without morcellation for removal of the tissue from the abdominal cavity. Immediately after the surgery the UL tissue was placed into an appropriate sterile buffer (Vitron V7 buffer (U.S. Pat. No. 5,328,821) or Viaspan buffer for organ transplantation) at 4° C. for transport from the clinic. Under a sterile workbench, the UL tissue was cut into small pieces of 2×2×2 mm while keeping the tissue constantly moist. The small pieces of tissue were placed in tissue wells with PBS at room temperature for xenotransplantation. (M Fritsch et al. 2010, ISGE abstract & presentation). […] Therefore, graft weight was taken as a primary read-out parameter for growth of UL tissue (FIGS. 5 and 6). […]
(§1) Experiment 2 (the Thioxoimidazolidine Derivative as Androgen Receptor Antagonist)—FIGS. 6 and 7 • Human myoma tissue from two different patients was grafted s.c. in SCID mice; and the mice were treated as described in method above. […] BrdU positive nuclei were visualized by immunohistochemical staining in formalin-fixed graft sections, pictures were taken, and BrdU-positive nuclei per area were counted using the MIRAX Histoquant software (3DHISTECH Ltd, Budapest, Hungary). […]

[3] = system: primary myoma cells; assay: Proliferation of primary myoma cells, CellTiter-Glo viability assay; type: cell-based, human; settings: 10^−6 M, 7 days; p<0.05 vs. DMSO; FIG. 3; range comparable to estradiol
[4] = system: human uterine leiomyoma xenografts; assay: Human xenograft cell proliferation (BrdU positive nuclei) in immunodeficient mice; type: in vivo; settings: last week of Experiment 2, 15 mg/kg/d p.o. daily; two donors; FIG. 7
Procedure: Human uterine leiomyoma (UL) tissue was derived from any form of surgical intervention indicated for the respective diagnosis, either by hysterectomy with subsequent preparation of the tissues or by myomenucleation with or without morcellation for removal of the tissue from the abdominal cavity. Immediately after the surgery the UL tissue was placed into an appropriate sterile buffer (Vitron V7 buffer (U.S. Pat. No. 5,328,821) or Viaspan buffer for organ transplantation) at 4° C. for transport from the clinic. Under a sterile workbench, the UL tissue was cut into small pieces of 2×2×2 mm while keeping the tissue constantly moist. The small pieces of tissue were placed in tissue wells with PBS at room temperature for xenotransplantation. (M Fritsch et al. 2010, ISGE abstract & presentation). […] Therefore, graft weight was taken as a primary read-out parameter for growth of UL tissue (FIGS. 5 and 6).
as §1

With `CC(O)(CS(=O)(=O)c1ccc(F)cc1)C(=O)Nc1ccc(C#N)c(C(F)(F)F)c1` (stereo not drawn) [bicalutamide, N-[4-cyano-3-(trifluoromethyl)phenyl]-3-[(4-fluorophenyl)sulfonyl]-2-hydroxy-2-methylpropanamide] the “effect on DHT-induced proliferation of Elt3 cells” value ([1]; 10^−7 M bicalutamide with 10^−9 M DHT, p<0.05 vs. DHT, FIG. 4) was “abolished” and the “graft weight reduction vs. respective controls” value ([2]; Experiment 1: 15 mg/kg/d p.o. every 2nd day, tissue from three patients, FIG. 5) was greater than 30%.
`C[C@]12CCC(=O)C[C@@H]1CC[C@@H]1[C@@H]2CC[C@]2(C)[C@@H](O)CC[C@@H]12` [dihydrotestosterone, 5α-dihydrotestosterone] was tested, and the “proliferation of Elt3 cells” value ([1]; 10^−9 M DHT, 7 days, p<0.05 vs. DMSO, FIG. 4) was “significantly increased”, the “proliferation of Eker rat myoma cell line (Elt3)” value [1] was “dose-dependent increase of proliferation” and the “proliferation of primary myoma cells” value [3] was “significantly induce an increase of proliferation”.
For `C[C@]12CC[C@H]3[C@@H](CCC4=CC(=O)CC[C@@]43C)[C@@H]1CC[C@@H]2O` [testosterone], the “proliferation of Eker rat myoma cell line (Elt3)” value [1] was “dose-dependent increase of proliferation” and the “proliferation of primary myoma cells” value [3] was “significantly induce an increase of proliferation”.
For `CC(C)(O)COc1ccc(CN2C(=S)N(c3ccc(C#N)c(C(F)(F)F)c3)C(=O)C2(C)C)cn1` [thioxoimidazolidine derivative, 4-(3-{[6-(2-hydroxy-2-methylpropoxy)pyridin-3-yl]methyl}-4,4-dimethyl-5-oxo-2-thioxoimidazolidin-1-yl)-2-(trifluoromethyl)benzonitrile], the “graft weight reduction vs. respective controls” value ([2]; Experiment 2: 15 mg/kg/d p.o. daily, tissue from two patients, FIG. 6) was greater than 50% and the “proliferation of grafts (BrdU-positive nuclei per area)” value [4] was “clearly reduced”.
